Test [1] deals with T1, IP-3 receptor (Rattus norvegicus, UniProt P29994).
T1 construct: from tissue; host or cells: rat cerebellum (microsomal membrane preparation)
In words: IP-3 receptor antagonistic effect: inhibition of IP3 binding in rat cerebellum membrane preparations (Model 5). The method, then: The polysulfated glycosides of the present invention, depending on their chemical structure, inhibit the binding of inositol-1,4,5-trisphosphate (IP3) to its receptor in microsomal membrane preparations. As IP3 is a messenger molecule playing distinguished role in the activation of different cells, interfering with this function can explain the anti-asthmatic effect of these polysulfated glycosides. The IP3 antagonist effect of the polysulfated glycosides was determined using rat cerebellum membrane preparations according to Worley et al. (JBC 262, 12132, 1987).

For test [2], the system named is BN-rats. Description: Airways' hyper-responsiveness ex vivo: tracheal contraction to acetylcholine after antigen challenge and intratracheal pretreatment (Model 1). It counts as in vivo, rat. Conditions: for MAX** Contraction at maximal Ach concentration relative to control (mean ± SEM) / ED50* log M acetylcholine (Ach), causing 50% contraction relative to control (mean ± SEM): trachea 48 h post challenge; for ED50* log M acetylcholine (Ach), causing 50% contraction relative to control (mean ± SEM): sensitized BN rats. On the procedure: Brown Norway (BN) rats were actively sensitized to ovalbumin (OA) by a subcutaneous injection of 0.5 ml of OA/Al(OH)3 gel mixture (2 mg OA+10 g Al(OH)3/100 ml saline) on day 1 with subsequent subcutaneous injections (10 mg OA+10 g Al(OH)3/100 ml saline) given on days 14 and 21. On day 28, animals received the compound described in the first example intratracheally (0.001; 0.01; 0.1 or 1.0 mg/kg dose) 2 hours before antigen challenge. Antigen challenge was performed by inhalation of nebulised ovalbumin (1% antigen solution administered in a TSE inhalation system for 1 hour). Animals were sacrificed 48 hours post antigen challenge wherein the tracheas were removed to an organ bath. Dissected tracheas were allowed to equilibrate for 30 minutes before measuring tracheal spasmogenic response curves to acetylcholine (Ach).

Test [3] deals with BN rats. Description: Allergen stimulated mucus production of airways epithelial cells (Model 2). The format is in vivo, rat. Conditions: for number of PAS(+) cells as percent of total number of cells (average ± SEM): lungs 48 hours after challenge. On the procedure:
Sensitized BN rats were treated intratracheally with varying (0.001-1.0 mg/kg) dose of compound described in the first example, two hours before antigenic challenge, using a similar protocol described in Model 1. Lungs were collected 48 hours after challenge and were fixed in 8% phosphate buffered formaldehyde. Samples were then processed for histochemistry routinely. 5 μm thick sections were stained with periodic-acid-Schiff (PAS) reagents and were counterstained with haematoxylin-eosine. On the sections each epithelial cells of the airways were counted in the whole preparation at a magnification of 400×. The number of PAS(+) [mucus producing] epithelial cells was expressed as the ratio of the total number of epithelial cells.

In test [4] the test system is BN rats. Description: Extent of perivascular oedema developed in asthmatic lung tissue (Model 3). It counts as in vivo, rat. Conditions: for Oedema* area of oedema relative to area of vasculature (average ± SEM): lungs 48 hours after challenge. The method, then:
Sensitized BN rats were treated intratracheally with varying (0.001-1.0 mg/kg) dose of compound described in the first example, two hours before antigenic challenge, using a similar protocol described in Model 1. Lungs were collected 48 hours after challenge and were fixed in 8% phosphate buffered formaldehyde. Samples were then processed for histochemistry routinely. 5 μm thick sections were stained with periodic-acid-Schiff (PAS) reagents and were counterstained with haematoxylin-eosine. On the sections the area of the connective tissue around the vasculare was determined and expressed as a ratio of the area of the corresponding blood vessel itself.

Test [5] has as its system BN rats. Description: Extent of peribronchial eosinophilia developed in asthmatic lung tissue (Model 4). The format is in vivo, rat. The following applies: for peribronchial eosinophil number per visual field (average ± SEM): lungs 48 hours after challenge. On the procedure:
Sensitized BN rats were treated intratracheally with varying (0.001-1.0 mg/kg) dose of compound described in the first example, two hours before antigenic challenge, using a similar protocol described in Model 1. Lungs were collected 48 hours after challenge and were fixed in 8% phosphate buffered formaldehyde. Samples were then processed for histochemistry routinely. 5 μm thick sections were stained with May Gruenvald Giemsa and the number of eosinophils, situated peribronchially, was determined.

Where [6] appears, read: read-out: IC50 (μg/ml) Average ± SEM (n) (converted).
The mark [7] stands for this setting: 0.001 mg/kg intratracheally 2 hours before antigen challenge.
Setting [8] is: 0.1 mg/kg intratracheally 2 hours before antigen challenge.
Setting [9] is: 0.001 mg/kg intratracheally two hours before antigenic challenge.
[10] abbreviates: 0.1 mg/kg intratracheally two hours before antigenic challenge.

SMILES strings stand for the structures. Counter-ions that a name gives are not always drawn. Like-named read-outs stand apart in the source and are kept apart here.

T1 sequence (P29994 whole entry): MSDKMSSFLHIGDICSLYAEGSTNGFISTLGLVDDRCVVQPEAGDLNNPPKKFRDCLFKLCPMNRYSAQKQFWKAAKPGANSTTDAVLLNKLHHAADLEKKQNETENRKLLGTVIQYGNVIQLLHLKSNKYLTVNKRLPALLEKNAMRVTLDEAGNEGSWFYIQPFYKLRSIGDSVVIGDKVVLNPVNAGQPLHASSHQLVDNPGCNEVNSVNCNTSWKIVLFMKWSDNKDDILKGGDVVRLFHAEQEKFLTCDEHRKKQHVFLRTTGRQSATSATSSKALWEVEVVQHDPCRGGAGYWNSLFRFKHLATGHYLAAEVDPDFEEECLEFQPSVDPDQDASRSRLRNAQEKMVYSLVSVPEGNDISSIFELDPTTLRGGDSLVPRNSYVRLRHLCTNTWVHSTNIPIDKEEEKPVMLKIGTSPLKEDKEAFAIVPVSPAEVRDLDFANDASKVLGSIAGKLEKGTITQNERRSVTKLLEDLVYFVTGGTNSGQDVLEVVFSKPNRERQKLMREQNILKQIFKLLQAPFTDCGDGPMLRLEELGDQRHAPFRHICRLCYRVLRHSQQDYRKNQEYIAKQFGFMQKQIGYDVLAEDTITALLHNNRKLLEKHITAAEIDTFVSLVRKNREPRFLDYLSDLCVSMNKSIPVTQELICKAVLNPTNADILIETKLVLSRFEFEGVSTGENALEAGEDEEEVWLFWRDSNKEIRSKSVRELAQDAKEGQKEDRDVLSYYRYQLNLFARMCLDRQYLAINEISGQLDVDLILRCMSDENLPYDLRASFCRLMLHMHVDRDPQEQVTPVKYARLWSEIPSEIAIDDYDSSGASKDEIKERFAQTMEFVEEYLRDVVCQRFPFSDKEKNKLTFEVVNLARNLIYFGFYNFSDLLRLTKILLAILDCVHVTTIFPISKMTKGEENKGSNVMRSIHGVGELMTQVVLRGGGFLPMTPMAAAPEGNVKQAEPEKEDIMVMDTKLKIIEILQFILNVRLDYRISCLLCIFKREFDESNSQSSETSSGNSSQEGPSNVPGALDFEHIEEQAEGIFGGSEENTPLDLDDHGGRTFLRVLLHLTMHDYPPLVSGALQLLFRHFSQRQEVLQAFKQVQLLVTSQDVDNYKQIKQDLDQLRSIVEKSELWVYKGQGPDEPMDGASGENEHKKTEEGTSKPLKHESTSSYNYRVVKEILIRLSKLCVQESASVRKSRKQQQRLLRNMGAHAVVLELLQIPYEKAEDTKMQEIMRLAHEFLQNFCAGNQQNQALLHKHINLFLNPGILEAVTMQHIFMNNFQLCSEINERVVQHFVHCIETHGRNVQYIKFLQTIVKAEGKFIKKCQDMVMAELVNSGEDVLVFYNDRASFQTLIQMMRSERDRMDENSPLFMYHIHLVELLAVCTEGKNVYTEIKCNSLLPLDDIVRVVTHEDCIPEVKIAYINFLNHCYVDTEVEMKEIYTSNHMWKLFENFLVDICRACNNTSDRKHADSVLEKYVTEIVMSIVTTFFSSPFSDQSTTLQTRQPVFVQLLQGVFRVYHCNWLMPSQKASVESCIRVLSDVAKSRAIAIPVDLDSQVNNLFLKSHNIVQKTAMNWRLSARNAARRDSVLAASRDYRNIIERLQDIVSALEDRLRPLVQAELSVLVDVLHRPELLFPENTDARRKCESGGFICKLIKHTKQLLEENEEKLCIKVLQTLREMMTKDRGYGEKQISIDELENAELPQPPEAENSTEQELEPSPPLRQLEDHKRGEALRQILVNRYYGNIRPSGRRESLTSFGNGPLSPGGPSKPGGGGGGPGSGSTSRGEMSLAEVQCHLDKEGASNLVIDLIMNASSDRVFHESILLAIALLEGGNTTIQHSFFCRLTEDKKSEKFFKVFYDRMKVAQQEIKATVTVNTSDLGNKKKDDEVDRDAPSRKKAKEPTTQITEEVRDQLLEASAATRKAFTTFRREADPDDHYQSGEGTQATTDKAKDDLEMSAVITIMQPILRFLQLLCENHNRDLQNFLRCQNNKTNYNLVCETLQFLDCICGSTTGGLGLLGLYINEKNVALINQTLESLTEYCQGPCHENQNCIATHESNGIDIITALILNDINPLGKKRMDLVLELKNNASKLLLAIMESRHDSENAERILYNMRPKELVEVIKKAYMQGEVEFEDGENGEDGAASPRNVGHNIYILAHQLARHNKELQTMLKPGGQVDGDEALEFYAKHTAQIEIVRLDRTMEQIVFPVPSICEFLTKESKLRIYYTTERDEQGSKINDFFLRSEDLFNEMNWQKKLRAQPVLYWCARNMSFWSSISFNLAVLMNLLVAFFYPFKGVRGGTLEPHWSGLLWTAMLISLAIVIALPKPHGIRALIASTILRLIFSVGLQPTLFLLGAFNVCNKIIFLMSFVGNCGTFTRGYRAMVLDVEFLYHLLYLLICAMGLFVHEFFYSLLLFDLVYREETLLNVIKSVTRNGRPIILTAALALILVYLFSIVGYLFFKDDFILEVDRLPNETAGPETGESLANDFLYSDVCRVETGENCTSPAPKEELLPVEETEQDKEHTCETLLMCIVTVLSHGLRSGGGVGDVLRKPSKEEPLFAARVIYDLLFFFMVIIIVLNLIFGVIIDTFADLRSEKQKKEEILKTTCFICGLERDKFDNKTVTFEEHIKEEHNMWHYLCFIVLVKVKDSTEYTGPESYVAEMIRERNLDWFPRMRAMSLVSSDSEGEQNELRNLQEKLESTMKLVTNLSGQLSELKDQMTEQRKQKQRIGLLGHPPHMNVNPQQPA

On to `O=S(=O)(O)OC[C@H]1O[C@@H](OC[C@H]2O[C@@H](O[C@H]3[C@H](OS(=O)(=O)O)[C@@H](COS(=O)(=O)O)O[C@@H]3COS(=O)(=O)O)[C@H](OS(=O)(=O)O)[C@@H](OS(=O)(=O)O)[C@@H]2OS(=O)(=O)O)[C@H](OS(=O)(=O)O)[C@@H](OS(=O)(=O)O)[C@@H]1OS(=O)(=O)O` [Example 7, 2,5-Anhydro-1,4,6-tri-O-sulfato-3-O-[6-O-(2,3,4,6-tetra-O-sulfato-β-D-glucopyranosido)-2,3,4-tetra-O-sulfato-β-D-glucopyranosyl]-D-mannitol deca potassium salt], for which the IC50 in test [1] (read-out: Average IC50) is 240 nM; in test [1] (setting [6]), 310 nM.

For the compound `O=S(=O)(O)OC[C@H]1O[C@@H](O[C@H]2[C@H](OS(=O)(=O)O)[C@@H](COS(=O)(=O)O)O[C@@H]2COS(=O)(=O)O)[C@H](OS(=O)(=O)O)[C@@H](OS(=O)(=O)O)[C@@H]1OS(=O)(=O)O` [Example 3, 2,5-Anhydro-1,4,6-tri-O-sulfato-3-O-(2,3,4,6-tetra-O-sulfato-β-D-glucopyranosyl)-D-mannitol hepta sodium salt], the IC50 was 1390 nM in test [1] (read-out: Average IC50) and 1210 nM in test [1] (setting [6]).

Take `O=S(=O)(O)OCC1OC(COS(=O)(=O)O)C(OS(=O)(=O)O)C1OC1OC(COS(=O)(=O)O)C(OS(=O)(=O)O)C(OS(=O)(=O)O)C1OS(=O)(=O)O` [Example 2, 2,5-Anhydro-1,4,6-tri-O-sulfato-3-O-(2,3,4,6-tetra-O-sulfato-α-L-idopyranosyl)-D-mannitol hepta potassium salt]: the IC50 is 4810 nM in test [1] (read-out: Average IC50) and 5650 nM in test [1] (setting [6]).

As for `O=S(=O)(O)OC[C@H]1O[C@@H](OC[C@H]2O[C@H](CO[C@@H]3O[C@H](COS(=O)(=O)O)[C@@H](OS(=O)(=O)O)[C@H](OS(=O)(=O)O)[C@H]3OS(=O)(=O)O)[C@@H](OS(=O)(=O)O)[C@@H]2O[C@@H]2O[C@H](COS(=O)(=O)O)[C@@H](OS(=O)(=O)O)[C@H](OS(=O)(=O)O)[C@H]2OS(=O)(=O)O)[C@H](OS(=O)(=O)O)[C@@H](OS(=O)(=O)O)[C@@H]1OS(=O)(=O)O` [Example 10, 2,5-Anhydro-4-O-sulfato-1,3,6-tris-O-(2,3,4,6-tetra-O-sulfato-β-D-glucopyranosyl)-D-mannitol trideca potassium salt], the IC50 in test [1] (read-out: Average IC50) was 137 nM; in test [1] (setting [6]) it was 177 nM.

As for `O=S(=O)(O)OC[C@H]1O[C@H](COS(=O)(=O)O)[C@@H](OS(=O)(=O)O)[C@@H]1O[C@H]1OC[C@@H](OS(=O)(=O)O)[C@@H](OS(=O)(=O)O)[C@@H]1OS(=O)(=O)O` [Example 5, 2,5-Anhydro-1,4,6-tri-O-sulfato-3-O-(2,3,4-tri-O-sulfato-α-D-arabinopyranosyl)-D-mannitol hexa potassium salt], the IC50 was 26500 nM in test [1] (read-out: Average IC50) and 34300 nM in test [1] (setting [6]).

Turning to `O=S(=O)(O)OCC1OC(OCC2OC(OCC3OC(COC4OC(COC5OC(COS(=O)(=O)O)C(OS(=O)(=O)O)C(OS(=O)(=O)O)C5OS(=O)(=O)O)C(OS(=O)(=O)O)C(OS(=O)(=O)O)C4OS(=O)(=O)O)C(OS(=O)(=O)O)C3OS(=O)(=O)O)C(OS(=O)(=O)O)C(OS(=O)(=O)O)C2OS(=O)(=O)O)C(OS(=O)(=O)O)C(OS(=O)(=O)O)C1OS(=O)(=O)O` [Example 9, 2,5-Anhydro-3,4-di-O-sulfato-1,6-bis-[(6-O-2,3,4,6-tetra-O-sulfato-β-D-glucopyranosido)-2,3,4-tri-O-sulfato-β-D-glucopyranosyl]-D-mannitol hexadeca potassium salt], the IC50 is 115 nM in test [1] (read-out: Average IC50) and 148 nM in test [1] (setting [6]).

For `O=S(=O)(O)OCC1OC(COS(=O)(=O)O)C(OS(=O)(=O)O)C1OC1OC(COS(=O)(=O)O)C(OS(=O)(=O)O)C(OS(=O)(=O)O)C1OS(=O)(=O)O` [Example 1, 2,5-Anhydro-1,4,6-tri-O-sulfato-3-O-(2,3,4,6-tetra-O-sulfato-α-L-idopyranosyl)-D-mannitol hepta sodium salt], the “MAX** Contraction at maximal Ach concentration relative to control (mean ± SEM)” value in test [2] (setting [7]) is 166 ± 41; in test [2] (setting [8]), 99 ± 16. The “ED50* log M acetylcholine (Ach), causing 50% contraction relative to control (mean ± SEM)” value was found to be 5.78 ± 0.30 log M in test [2] (setting [7]) and 4.70 ± 0.37 log M in test [2] (setting [8]). The “tracheal hyper-reactivity to acetylcholine after ovalbumin challenge (in words)” value in test [2] (dose of 0.1 mg/kg, 48 h after antigen challenge) is “brought this elevation back to control level”. Moreover, the “number of PAS(+) cells as percent of total number of cells (average ± SEM)” value in test [3] (setting [9]) was 35.2 ± 3.5%; in test [3] (setting [10]), 17.5 ± 2.4%. Moreover, the “number of PAS(+), mucus producing cells (in words)” value in test [3] (dose of 0.1 mg/kg) is on record as “significantly decreased”. Besides, the “Oedema* area of oedema relative to area of vasculature (average ± SEM)” value in test [4] (setting [9]) is given as 41 ± 6; in test [4] (setting [10]), 53 ± 6. Further, the “extent of aedema around the vasculature (in words)” value in test [4] (smallest dose) is on record as “significantly decreased”. Further, the “peribronchial eosinophil number per visual field (average ± SEM)” value is 74 ± 2 in test [5] (setting [9]) and 25 ± 2 in test [5] (setting [10]). For the same compound, the “number of peribronchially situated eosinophils in the lung (in words)” value in test [5] (higher doses) is given as “the decrease become statistically significant”; in test [5] (smallest dose), “decreases the extent of it”. The IC50 was 1490 nM in test [1] (read-out: Average IC50) and 1750 nM in test [1] (setting [6]).

As for `O=S(=O)(O)OC[C@H]1O[C@@H](OC[C@H]2O[C@H](CO[C@@H]3O[C@H](COS(=O)(=O)O)[C@@H](OS(=O)(=O)O)[C@H](OS(=O)(=O)O)[C@H]3OS(=O)(=O)O)[C@@H](OS(=O)(=O)O)[C@@H]2OS(=O)(=O)O)[C@H](OS(=O)(=O)O)[C@@H](OS(=O)(=O)O)[C@@H]1OS(=O)(=O)O` [Example 8, 2,5-Anhydro-3,4-di-O-sulfato-1,6-bis-O-(2,3,4,6-tetra-O-sulfato-β-D-glucopyranosyl)-D-mannitol deca potassium salt], the IC50 in test [1] (read-out: Average IC50) was 539 nM; in test [1] (setting [6]), 698 nM.

On to `O=S(=O)(O)OC[C@H]1O[C@H](COS(=O)(=O)O)[C@@H](OS(=O)(=O)O)[C@@H]1O[C@@H]1OC[C@H](OS(=O)(=O)O)[C@H](OS(=O)(=O)O)[C@H]1OS(=O)(=O)O` [Example 4, 2,5-Anhydro-1,4,6-tri-O-sulfato-3-O-(2,3,4-tri-O-sulfato-α-L-arabinopyranosyl)-D-mannitol hexa potassium salt], for which the values for the IC50 in test [1] (read-out: Average IC50) and in test [1] (setting [6]) were 20300 nM and 26300 nM, respectively.

`O=S(=O)(O)OC[C@H]1O[C@@H](O[C@H]2[C@H](OS(=O)(=O)O)[C@@H](COS(=O)(=O)O)O[C@@H]2COS(=O)(=O)O)[C@H](OS(=O)(=O)O)[C@@H](OS(=O)(=O)O)[C@@H]1O[C@H]1O[C@H](COS(=O)(=O)O)[C@@H](OS(=O)(=O)O)[C@H](OS(=O)(=O)O)[C@H]1OS(=O)(=O)O` [Example 6, 2,5-Anhydro-1,4,6-tri-O-sulfato-3-O-(2,3,6,2′,3′,4′,6′-hepta-O-sulfato-β-D-maltosyl)-D-mannitol deca potassium salt]: the IC50 was 222 nM in test [1] (read-out: Average IC50) and 287 nM in test [1] (setting [6]).
